Test results: patent US10899754B2, “Modulators of indoleamine 2,3-dioxygenase” (GLAXOSMITHKLINE INTELLECTUAL PROPERTY DEVELOPMENT LIMITED, priority 2016, dated 2021)

Experiments:
Assay type in all cases: cell-based
[1] = target: T1, indoleamine 2, 3-dioxygenase (IDO1) (Homo sapiens, UniProt P14902); assay: IDO1 HeLa RapidFire MS assay (kynurenine detection by mass spectrometry); set-up: to induce the expression of indoleamine 2, 3-dioxygenase (IDO1); details: HeLa cells, pIC50, read-out: IDO1_HELA_PXC50 (converted)
Method: IDO1 HeLa RapidFire MS Assay
(§1) Compounds of the present invention were tested via high-throughput cellular assays utilizing detection of kynurenine via mass spectrometry and cytotoxicity as end-points. For the mass spectrometry and cytotoxicity assays, human epithelial HeLa cells (CCL-2; ATCC®, Manassas, Va.) were stimulated with human interferon-γ (IFN-γ) (Sigma-Aldrich Corporation, St. Louis, Mo.) to induce the expression of indoleamine 2, 3-dioxygenase (IDO1). Compounds with IDO1 inhibitory properties decreased the amount of kynurenine produced by the cells via the tryptophan catabolic pathway. Cellular toxicity due to the effect of compound treatment was measured using CellTiter-Glo® reagent (CTG) (Promega Corporation, Madison, Wis.), which is based on luminescent detection of ATP, an indicator of metabolically active cells.
(§2) In preparation for the assays, test compounds were serially diluted 3-fold in DMSO from a typical top concentration of 1 mM or 5 mM and plated at 0.5 μL in 384-well, polystyrene, clear bottom, tissue culture treated plates with lids (Greiner Bio-One, Kremsmünster, Austria) to generate 11-point dose response curves. Low control wells (0% kynurenine or 100% cytotoxicity) contained either 0.5 μL of DMSO in the presence of unstimulated (−IFN-γ) HeLa cells for the mass spectrometry assay or 0.5 μL of DMSO in the absence of cells for the cytotoxicity assay, and high control wells (100% kynurenine or 0% cytotoxicity) contained 0.5 μL of DMSO in the presence of stimulated (+IFN-γ) HeLa cells for both the mass spectrometry and cytotoxicity assays.
(§3) Frozen stocks of HeLa cells were washed and recovered in DMEM high glucose medium with HEPES (Thermo Fisher Scientific, Inc., Waltham, Mass.) supplemented with 10% v/v certified fetal bovine serum (FBS) (Thermo Fisher Scientific, Inc., Waltham, Mass.), and 1× penicillin-streptomycin antibiotic solution (Thermo Fisher Scientific, Inc., Waltham, Mass.). The cells were diluted to 100,000 cells/mL in the supplemented DMEM medium. 50 μL of either the cell suspension, for the mass spectrometry assay, or medium alone, for the cytotoxicity assay, were added to the low control wells, on the previously prepared 384-well compound plates, resulting in 5,000 cells/well or 0 cells/well respectively. IFN-γ was added to the remaining cell suspension at a final concentration of 10 nM, and 50 μL of the stimulated cells were added to all remaining wells on the 384-well compound plates. The plates, with lids, were then placed in a 37° C., 5% CO2 humidified incubator for 2 days.
(§4) Following incubation, the 384-well plates were removed from the incubator and allowed to equilibrate to room temperature for 30 minutes. For the cytotoxicity assay, CellTiter-Glo® was prepared according to the manufacturer's instructions, and 10 μL were added to each plate well. After a twenty minute incubation at room temperature, luminescence was read on an EnVision® Multilabel Reader (PerkinElmer Inc., Waltham, Mass.). For the mass spectrometry assay, 10 μL of supernatant from each well of the compound-treated plates were added to 40 μL of acetonitrile, containing 10 μM of an internal standard for normalization, in 384-well, polypropylene, V-bottom plates (Greiner Bio-One, Kremsmünster, Austria) to extract the organic analytes. Following centrifugation at 2000 rpm for 10 minutes, 10 μL from each well of the acetonitrile extraction plates were added to 90 μL of sterile, distilled H2O in 384-well, polypropylene, V-bottom plates for analysis of kynurenine and the internal standard on the RapidFire 300 (Agilent Technologies, Santa Clara, Calif.) and 4000 QTRAP MS (SCIEX, Framingham, Mass.). MS data were integrated using Agilent Technologies' RapidFire Integrator software, and data were normalized for analysis as a ratio of kynurenine to the internal standard. […]

[2] = test system: human epithelial HeLa cells; assay: HeLa cytotoxicity assay (CellTiter-Glo); details: pCC50
Method: as §1, §2, §3, §4

[3] = test system: human peripheral blood mononuclear cells (PBMC); assay: PBMC cytotoxicity assay (CellTiter-Glo); details: 2 days, pCC50
In short: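 Human PBMC (50,000 cells/well) stimulated with IFN-γ 100 ng/ml and LPS 50 ng/ml were exposed to 11-point 3-fold compound dilutions for 2 days at 37 °C, 5% CO2. Viability read by CellTiter-Glo ATP luminescence and normalized to no-cell and stimulated-DMSO controls. XC50 derived by four-parameter fit.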

[4] = target: T1, indoleamine 2, 3-dioxygenase (IDO1); assay: IDO1 PBMC RapidFire MS assay (kynurenine detection by mass spectrometry); set-up: to induce the expression of indoleamine 2, 3-dioxygenase (IDO1); host or cells: human PBMC stimulated with IFN-gamma and LPS; details: human PBMC stimulated with IFN-γ and LPS, 2 days, pIC50, read-out: PBMC PXC50 (converted)
In short: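 PBMCs (50,000 cells/well) stimulated with IFN-γ 100 ng/ml plus LPS 50 ng/ml, treated with 11-point 3-fold compound series for 2 days at 37° C. Supernatant kynurenine measured by RapidFire MS, normalised to internal standard; parallel cytotoxicity by CellTiter-Glo luminescence; curves fitted for XC50.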

T1 sequence (P14902 whole entry): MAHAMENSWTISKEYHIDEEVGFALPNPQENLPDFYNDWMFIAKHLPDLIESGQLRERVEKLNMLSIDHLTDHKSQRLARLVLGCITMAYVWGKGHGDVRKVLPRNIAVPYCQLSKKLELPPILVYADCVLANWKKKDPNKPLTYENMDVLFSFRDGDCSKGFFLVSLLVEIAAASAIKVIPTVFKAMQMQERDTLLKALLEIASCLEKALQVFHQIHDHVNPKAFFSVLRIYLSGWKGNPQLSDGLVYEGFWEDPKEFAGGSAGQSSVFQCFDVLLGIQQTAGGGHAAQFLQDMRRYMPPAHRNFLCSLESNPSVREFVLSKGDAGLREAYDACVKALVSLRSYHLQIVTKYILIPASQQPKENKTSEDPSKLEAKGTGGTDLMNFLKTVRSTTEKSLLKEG

SMILES | IC50 [1] [nM] | IC50 [4] [nM] | HELA_IDO1_TOX_PXC50 [2] | PBMC TOX PXC50 [3]
CC(C)CN(c1ccc(-c2ccccc2C(=O)O)cc1Nc1nc(C(F)(F)F)ns1)C1CCN(CCO)CC1 [example 271, 4′-{[1-(2-hydroxyethyl)piperidin-4-yl](2-methylpropyl)amino}-3′-{[3-(trifluoromethyl)-1,2,4-thiadiazol-5-yl]amino}-[1,1′-biphenyl]-2-carboxylic acid] | 6310 | – | <5 | –
Cc1nnc(Nc2cc(C(C)CC(=O)O)ccc2N(CC(C)C)CC(C)C)o1.O=C(O)C(F)(F)F (stereo not shown) [example 125, 3-{4-[bis(2-methylpropyl)amino]-3-[(5-methyl-1,3,4-oxadiazol-2-yl)amino]phenyl}butanoic acid] | 1260 | – | <4.3 | –
COc1nsc(Nc2cc(C(C)CC(=O)O)ccc2N(CC(C)C)CC(C)C)n1 (stereo not shown) [example 132, 3-{4-[bis(2-methylpropyl)amino]-3-[(3-methoxy-1,2,4-thiadiazol-5-yl)amino]phenyl}butanoic acid] | 15800 | – | <4.3 | –
CC(C)CN(CC(C)C)c1ccc(C(C)CC(=O)O)cc1Nc1nc2c(s1)CCCC2 (stereo not shown) [example 131, 3-{4-[bis(2-methylpropyl)amino]-3-[(4,5,6,7-tetrahydro-1,3-benzothiazol-2-yl)amino]phenyl}butanoic acid] | 631 | – | 4.7 | –
CC(=O)N1CCC(Nc2cc(C(C)CC(=O)O)ccc2N(CC(C)C)C2CCCCC2)C1 (stereo not shown) [example 135, 3-{3-[(1-acetylpyrrolidin-3-yl)amino]-4-[cyclohexyl(2-methylpropyl)amino]phenyl}butanoic acid] | 3980 | – | <5 | –
CC(C)CN(c1ccc(C(C)CC(=O)O)cc1NC1CCS(=O)(=O)CC1)C1CCCCC1 (stereo not shown) [example 134, 3-{4-[cyclohexyl(2-methylpropyl)amino]-3-[(1,1-dioxo-1λ^6-thian-4-yl)amino]phenyl}butanoic acid] | 3160 | – | <5 | –
CC(C)CN(c1ccc(/C=C/C(=O)O)cc1Nc1nc2ccccc2o1)C1CCCCC1 [example 137, (2E)-3-{3-[(1,3-benzoxazol-2-yl)amino]-4-[cyclohexyl(2-methylpropyl)amino]phenyl}prop-2-enoic acid] | – | – | <5 | –
CC(C)CN(CC(C)C)c1ccc(C(C)CC(=O)O)cc1Nc1nc(-c2ccncc2)cs1 (stereo not shown) [example 130, 3-{4-[bis(2-methylpropyl)amino]-3-{[4-(pyridin-4-yl)-1,3-thiazol-2-yl]amino]phenyl}butanoic acid] | 1580 | – | <4.3 | –
CC(C)CN(CC(C)C)c1ccc(C(C)CC(=O)O)cc1Nc1nnc(-c2ccccc2)o1.O=C(O)C(F)(F)F (stereo not shown) [example 123, 3-{4-[bis(2-methylpropyl)amino]-3-[(5-phenyl-1,3,4-oxadiazol-2-yl)amino]phenyl}butanoic acid] | – | – | <4.3 | –
CC(C)CN(CC(C)C)c1ccc(C(C)CC(=O)O)cc1Nc1nc(N2CCC2)ns1 (stereo not shown) [example 120, 3-(3-{[3-(azetidin-1-yl) 1,2,4-thiadiazol-5-yl]amino}-4-[bis(2-methylpropyl)amino]phenyl)butanoic acid] | – | – | <4.3 | 4.7

Second part, led by results:

IC50 [1] [nM] | IC50 [4] [nM] | SMILES | HELA_IDO1_TOX_PXC50 [2] | PBMC TOX PXC50 [3]
631 | – | CC(C)CN(CC(C)C)c1ccc(C(C)CC(=O)O)cc1Nc1cnc(CO)s1 (stereo not shown) [example 207, 3-{4-[bis(2-methylpropyl)amino]-3-{[2-(hydroxymethyl)-1,3-thiazol-5-yl]amino}phenyl}butanoic acid] | <5 | –
631 | – | CC(C)CN(CC(C)C)c1ccc(-c2ccccc2C(=O)O)cc1Nc1nc2ccccc2o1 [example 293, 3′-[(1,3-benzoxazol-2-yl)amino]-4′-[bis(2-methylpropyl)amino]-[1,1′-biphenyl]-2-carboxylic acid] | <5 | –
501 | – | CC(C)CN(c1ccc([C@H](C)CC(=O)O)cc1NC1CCC[C@@H](C)C1)C1CCCCC1 (stereo partly drawn) [example 184, (3R)-3-{4-[cyclohexyl(2-methylpropyl)amino]-3-{[(3R)-3-methylcyclohexyl]amino}phenyl}butanoic acid] | <5 | –
> 10000 | – | CC(C)CN(CC(C)C)c1ccc(C(C)CC(=O)O)cc1NCc1noc(C2CC2)n1 (stereo not shown) [example 147, 3-{4-[bis(2-methylpropyl)amino]-3-{[(5-cyclopropyl-1,2,4-oxadiazol-3-yl)methyl]amino}phenyl} butanoic acid] | <5 | –
200 | – | CC(C)CN(CC(C)C)c1ccc(C(C)CC(=O)O)cc1Nc1ccc(CO)cn1 (stereo not shown) [example 194, 3-{4-[bis(2-methylpropyl)amino]-3-{[5-(hydroxymethyl)pyridin-2-yl]amino}phenyl}butanoic acid] | <5 | –
794 | – | CC(C)CN(CC(C)C)c1ccc(C(C)CC(=O)O)cc1Nc1nc(C2CC2)cs1 (stereo not shown) [example 141, 3-{4-[bis(2-methylpropyl)amino]-3-[(4-cyclopropyl-1,3-thiazol-2-yl)amino]phenyl}butanoic acid] | <5 | –
794 | – | CC(C)CN(c1ccc(-c2ncccc2C(=O)O)cc1Nc1nc2ccccc2o1)C1CCCCC1 [example 292, 2-{3-[(1,3-benzoxazol-2-yl)amino]-4-[cyclohexyl(2-methylpropyl)amino]phenyl}pyridine-3-carboxylic acid] | <5 | –
126 | – | COCc1nnc(Nc2cc(C(C)CC(=O)O)ccc2N(CC(C)C)CC(C)C)s1 (stereo not shown) [example 188, 3-{4-[bis(2-methylpropyl)amino]-3-{[5-(methoxymethyl)-1,3,4-thiadiazol-2-yl]amino}phenyl}butanoic acid] | <5 | –
20 | 50.1 | CC(C)CN(CC(C)C)c1ccc([C@@H]2C[C@@H]2C(=O)O)cc1Nc1nc(C(F)(F)F)ns1 (single isomer, unassigned) [example 209] | – | <5
– | 5010 | CC(C)CN(c1ccc(C(C)CC(=O)O)cc1NCc1c[nH]cn1)C1CCCCC1 (stereo not shown) [example 159, 3-{4-[cyclohexyl(2-methylpropyl)amino]-3-{[(1H-imidazol-4-yl)methyl]amino}phenyl} butanoic acid] | <5 | <5
50.1 | 39.8 | COCc1nnc(Nc2cc([C@H](C)CC(=O)O)ccc2N(CC(C)C)C2CCOCC2)s1 [example 216, (3R)-3-(3-{[5-(methoxymethyl)-1,3,4-thiadiazol-2-yl]amino}-4-[(2-methylpropyl)(oxan-4-yl)amino]phenyl)butanoic acid] | – | <5
